We go through 22 molecules from ChEMBL document CHEMBL1129893 (Bioorg Med Chem Lett, 1997).

Assay [1] concerns the target T1, Estrogen receptor (Homo sapiens, UniProt Q92731+P03372). Conditions: mcf-7.
Description: Antagonist effect in breast tissue was assayed by inhibition of estrogen stimulated MCF-7 cell proliferation
Assay [2] addresses T1, Estrogen receptor. Kind of assay: Displacement of [3H]estradiol from estrogen receptor in MCF-7 cell lysate; Inactive. It counts as cell-free.

Structures are written as SMILES. Activity calls are given as the source filed them. The calls are words filed in the database; no cut-off is given here.

By IC50 is commonly meant the concentration needed to halve the response being measured. Read a high IC50 as a need for much substance. The molecule `COC(=O)c1ccc(-c2sc3cc(O)ccc3c2C(=O)c2ccc(OCCN3CCCCC3)cc2)cc1` displayed a half-maximal inhibitory concentration (IC50) in assay [1] of 50 nM.

On to `COC(=O)c1ccc(-c2sc3ccccc3c2C(=O)c2ccc(OCCN3CCCCC3)cc2)cc1`, for which, in assay [2], the Relative binding affinity result was “inactive”. This molecule returned an IC50 in assay [1] of 1000 nM.

As to `COC(=O)c1ccc(-c2sc3cc(C(=O)OC)ccc3c2C(=O)c2ccc(OCCN3CCCCC3)cc2)cc1`, the IC50 in assay [1] turned out to be 1000 nM.

As to `O=C(O)c1ccc(-c2sc3cc(O)ccc3c2C(=O)c2ccc(OCCN3CCCCC3)cc2)cc1`, the 50% inhibitory concentration (IC50) in assay [1] was 325 nM.

Take `CCOC(=O)c1ccc(-c2sc3cc(O)ccc3c2C(=O)c2ccc(OCCN3CCCCC3)cc2)cc1`: in assay [1], half-maximal inhibition (IC50) required 50 nM.

The molecule `CNC(=O)c1ccc(-c2sc3cc(O)ccc3c2C(=O)c2ccc(OCCN3CCCCC3)cc2)cc1` displayed an IC50 in assay [1] of 40 nM.

In the case of `CCCCOC(=O)c1ccc2c(C(=O)c3ccc(OCCN4CCCCC4)cc3)c(-c3ccc(O)cc3)sc2c1`, in assay [1], the IC50 is listed as 40 nM.

In assay [1], `N#Cc1ccc(-c2sc3cc(O)ccc3c2C(=O)c2ccc(OCCN3CCCCC3)cc2)cc1` gave a half-inhibitory concentration (IC50) of 8 nM.

Regarding `CCOP(=O)(OCC)c1ccc2c(C(=O)c3ccc(OCCN4CCCCC4)cc3)c(-c3ccc(O)cc3)sc2c1`, it took 200 nM to reach half-maximal inhibition in assay [1] (IC50).

With `COC(=O)c1ccc2c(C(=O)c3ccc(OCCN4CCCCC4)cc3)c(-c3ccccc3)sc2c1`, the IC50 in assay [1] is on record as 1000 nM.

For the molecule `CCOP(=O)(OCC)c1ccc(-c2sc3cc(O)ccc3c2C(=O)c2ccc(OCCN3CCCCC3)cc2)cc1`, the half-maximal inhibitory concentration (IC50) in assay [1] stood at 210 nM.

Turning to `O=C(O)c1ccc2c(C(=O)c3ccc(OCCN4CCCCC4)cc3)c(-c3ccc(O)cc3)sc2c1`, in assay [2], the Relative binding affinity entry is “inactive”.

Turning to `NC(=O)c1ccc(-c2sc3cc(O)ccc3c2C(=O)c2ccc(OCCN3CCCCC3)cc2)cc1`, the IC50 in assay [1] was 200 nM.

`CN(C)C(=O)c1ccc(-c2sc3cc(O)ccc3c2C(=O)c2ccc(OCCN3CCCCC3)cc2)cc1` displayed an IC50 in assay [1] of 20 nM.

For `CC(=O)c1ccc(-c2sc3cc(O)ccc3c2C(=O)c2ccc(OCCN3CCCCC3)cc2)cc1`, the IC50 in assay [1] was 32 nM.

`COC(=O)c1ccc2c(C(=O)c3ccc(OCCN4CCCCC4)cc3)c(-c3ccc(O)cc3)sc2c1` returned an IC50 in assay [1] of 30 nM.

`NC(=O)c1ccc2c(C(=O)c3ccc(OCCN4CCCCC4)cc3)c(-c3ccc(O)cc3)sc2c1`: the IC50 in assay [1] is recorded as 1000 nM.

`CC(C)COC(=O)c1ccc2c(C(=O)c3ccc(OCCN4CCCCC4)cc3)c(-c3ccc(O)cc3)sc2c1` gave an IC50 in assay [1] of 40 nM.

As for `C#Cc1ccc(-c2sc3cc(O)ccc3c2C(=O)c2ccc(OCCN3CCCCC3)cc2)cc1`, the midpoint of inhibition in assay [1], the IC50, lay at 0.8 nM.

The molecule `CC(=O)c1ccc2c(C(=O)c3ccc(OCCN4CCCCC4)cc3)c(-c3ccc(O)cc3)sc2c1` came in with an IC50 in assay [1] of 60 nM.

With `C#Cc1ccc2c(C(=O)c3ccc(OCCN4CCCCC4)cc3)c(-c3ccc(O)cc3)sc2c1`, it took 20 nM to reach half-maximal inhibition in assay [1] (IC50).

In turn, `C=Cc1ccc(-c2sc3cc(O)ccc3c2C(=O)c2ccc(OCCN3CCCCC3)cc2)cc1` returned a half-maximal inhibitory concentration (IC50) in assay [1] of 7 nM.
